Laboratory results published in patent publication US9895390B2, “Methods and assays for combination treatment of cancer” (CHILDREN'S MEDICAL CENTER CORPORATION, priority 2012, dated 2018).
“Also recorded” adds a separate entry of the source.

Legend:
human NSCLC lines = test: Cell line growth, 4 days (Cell Titer Glo); format: cell-based; settings: 1 μM DZNep
Method: (§1) Cell lines were dissociated, counted and plated at 5000 cells per well in flat bottom opaque tissue culture treated 96 well plates (CytoOne). Edge wells were filled with PBS. The following day, 2× drug diluted in media was added to each well such that the well then contained 100 ul media with 1× drug concentration. After 4 days, Cell Titer Glo™ (Promega) was added and luminescence was read on a BioTec plate reader to determine relative cell number in each well. Data were averaged for triplicate or quadruplicate technical replicates, normalized to the untreated wells and input into GraphPad Prism software to extrapolate IC50.
as §1, with “concentration at the following doses: etoposide; 0, 0.1, 1, 3, 5, 7, 10, 50, 100, 500 μM, cisplatin; 0, 0.1, 1, 5, 10, 30, 70, 100, 500 μM, or doxorubicin; 0, 0.01, 0.1, 0.5, 1, 3, 5, 7, 10, 50 μM.” for “concentration.”, “CELLTITER-GLO™” for “Cell Titer Glo™”, “replicates and” for “replicates,”, “wells. […]” for “wells and input into GraphPad Prism software to extrapolate IC50.”

H23 xenografts = test: Xenograft tumor growth in nude mice; format: in vivo, Foxn1nu (nude) mice; settings: H23, DZNep 1 mg/kg/day twice per week for 2 weeks (dosing scheme B)
Method: (§2) To determine if the protected and sensitized phenotypes could be observed in vivo, cells were transplanted subcutaneously, tumors allowed to initiate, and mice treated with etoposide and DZNep. 12 days after cell injection, tumor bearing mice were randomized into groups that received either etoposide (20 mg/kg/day) or placebo (corn oil) daily for five days. The cohorts were further subdivided into groups that also received DZNep, either 2 mg/kg/day twice during the first week (dosing scheme A), or 1 mg/kg/day twice during the first two weeks (dosing scheme B).
(§3) Cell lines were dissociated into single cells, counted and resuspended at 1×10^6 cells per 250 μL of 1:1 media/matrigel (BD). 8- to 16-week-old Foxn1nu (nude) mice (Harlan) were injected subcutaneously with 1×10^6 cells in four spots on flanks. Chemo and DZNep were administered from day 12 to day 17 post injections, Etoposide: 20 mg/kg/day i.p. in corn oil once per day for 5 consecutive days, and DZNep 2 mg/kg/day i.p. in corn oil twice per week for 1 week (dosing scheme A) OR 1 mg/kg/day i.p. in corn oil twice per week for 2 weeks (dosing scheme B). Tumor growth was measured every other day by caliper.
as §3, with “2-4” for “four”, “Etoposide” for “Chemo”, “injections; etoposide:” for “injections, Etoposide:”, “week, or” for “week (dosing scheme A) OR”, “weeks.” for “weeks (dosing scheme B).”, “caliper. All mouse experiments were approved by the CHB Animal Care and Use Committee and by the Dana-Farber Cancer Institute Institutional Animal Care and Use Committee, both accredited by AAALAC, and were performed in accordance with relevant institutional and national guidelines and regulations.” for “caliper.”

H157 xenografts = test: Xenograft tumor growth in nude mice; format: in vivo, Foxn1nu (nude) mice
Method: as §2, §3
as §3, with “2-4” for “four”, “Etoposide” for “Chemo”, “injections; etoposide:” for “injections, Etoposide:”, “week, or” for “week (dosing scheme A) OR”, “weeks.” for “weeks (dosing scheme B).”, “caliper. All mouse experiments were approved by the CHB Animal Care and Use Committee and by the Dana-Farber Cancer Institute Institutional Animal Care and Use Committee, both accredited by AAALAC, and were performed in accordance with relevant institutional and national guidelines and regulations.” for “caliper.”

H441 = test: Growth rate over 10 day time-course (Cell Titer Glo); format: cell-based, human; settings: H441, 1 μM DZNep, 10 day time-course
Method: (§4) FIG. 2A depicts a Western Blot for EZH2 and H3K27me3 performed on whole cell extracts 4 days after indicated treatments, β-actin shown as a loading control. FIG. 2B depicts a graph of the growth rates of matched shGFP and shGFP cells treated with 1 μM DZNep and assayed by Cell Titer Glo at days 3, 5, 7, and 10 post plating at equal densities. Average luminescence ±s.e.m. for 3 replicate wells is shown based on when each shGFP cell line reached logarithmic growth, * indicates p<0.03. FIG. 2C depicts a graph of the response to Etoposide. Cell lines were plated at equal densities and treated a range of etoposide doses with or without 1 μM DZNep. On the 4th day, cell viability was measured using Cell Titer Glo and the percent survival at each dose of etoposide was calculated. Dose response curves were generated for the no DZNep and DZNep treated cells using the GraphPad prism software and IC50s were extrapolated. The fold change±s.e.m. of etoposide IC50 in response to DZNep is plotted, n=4 biological replicates, * indicates p<0.05. Cell lines with mutations in Brg1, EGFR and B-Raf are indicated.

HCC95 = test: as above; format: cell-based, human; settings: HCC95, 1 μM DZNep, 10 day time-course
Method: as §4

Calu6 = test: as above; format: cell-based, human; settings: Calu6, 1 μM DZNep, 10 day time-course
Method: as §4

HCC15 = test: as above; format: cell-based, human; settings: HCC15, 1 μM DZNep, 10 day time-course
Method: as §4

H157 = test: as above; format: cell-based, human; settings: H157, 1 μM DZNep, 10 day time-course
Method: as §4

H23 = test: Etoposide dose response curves in the presence of 5 μM cisplatin; format: cell-based, human; settings: H23 (protected), combination with DZNep
Method: (§5) FIG. 25A is a Waterfall plot of cell line growth in 1 μM DZNep for 4 days compared to untreated cells, n=3-5 biological replicates, * indicates p<0.04, ** p<0.007. […] FIG. 25C is a pair of representative etoposide dose response curves performed in the presence of 5 μM cisplatin, the sensitized line PC9 (4.2-fold decrease, p<0.0001) and the protected line H23 (3.4-fold increase, p<0.0001) are shown.
as §1, with “concentration at the following doses: etoposide; 0, 0.1, 1, 3, 5, 7, 10, 50, 100, 500 μM, cisplatin; 0, 0.1, 1, 5, 10, 30, 70, 100, 500 μM, or doxorubicin; 0, 0.01, 0.1, 0.5, 1, 3, 5, 7, 10, 50 μM.” for “concentration.”, “CELLTITER-GLO™” for “Cell Titer Glo™”, “replicates and” for “replicates,”, “wells. Results from three or four independent biological replicate experiments were” for “wells and”, “GRAPHPAD PRISM™” for “GraphPad Prism”, “IC50 and s.e.m. of IC50 for a given cell line.” for “IC50.”

PC9 = test: as above; format: cell-based, human; settings: PC9 (sensitized), combination with DZNep
Method: as §5
as §1, with “concentration at the following doses: etoposide; 0, 0.1, 1, 3, 5, 7, 10, 50, 100, 500 μM, cisplatin; 0, 0.1, 1, 5, 10, 30, 70, 100, 500 μM, or doxorubicin; 0, 0.01, 0.1, 0.5, 1, 3, 5, 7, 10, 50 μM.” for “concentration.”, “CELLTITER-GLO™” for “Cell Titer Glo™”, “replicates and” for “replicates,”, “wells. Results from three or four independent biological replicate experiments were” for “wells and”, “GRAPHPAD PRISM™” for “GraphPad Prism”, “IC50 and s.e.m. of IC50 for a given cell line.” for “IC50.”

`Nc1nccc2c1ncn2[C@@H]1C=C(CO)[C@@H](O)[C@H]1O` [DZNep, 3-Deazaneplanocin A] was tested, and the “average reduction in growth of the cell lines” value (human NSCLC lines; 4-day time point) was 20%, the “cell lines showing a significant reduction in growth” value (human NSCLC lines; 4-day time-point, panel of 26 lines) was 11 of 26 and the “sensitivity of xenografts to DZNep as a single therapy” value (H23 xenografts) was “very sensitive; also recorded: sensitive”. The “efficacy of dosing scheme B” value (H157 xenografts; H157, DZNep 1 mg/kg/day twice per week for 2 weeks) was “not as effective”, the “tumor burden, DZNep alone vs untreated/vehicle” value (H157 xenografts; H157 xenografts, DZNep 2 mg/kg/day twice in first week (dosing scheme A)) was “effective at reducing tumor burden; also recorded: weakly effective” and the decrease in proliferation (H441) was 2.1 fold. The change in proliferation (HCC95) was “increased proliferation”, the decrease in proliferation (Calu6) was 2.1 fold and the decrease in proliferation (HCC15) was 3.2 fold. For the same compound, the decrease in proliferation (H157) was 2.1 fold, the “increase in etoposide IC50” value (H23) was 3.4 fold and the “decrease in etoposide IC50” value (PC9) was 4.2 fold.
